Measurements: patent US5726208A, “Heterocyclic tertiary amines” (Adir et Compagnie, priority 1995, dated 1998)

System: D2 receptor
Test: Binding to cloned D2 receptors ([125I]-iodosulpride displacement)
Conditions: reference aminotetralines
Method: Pharmacological study STUDIES OF THE BINDING OF THE COMPOUNDS OF THE INVENTION TO D2 AND D3 RECEPTORS
The results are expressed in the form of pKi (pKi =-logKi).
The Ki value is derived from the formula Ki =IC50 /(1+L/KD), where L is the concentration of [^125 I]-iodosulpride used in the experiment and Kd its dissociation constant.
The IC50, which represents the concentration that gives a 50% inhibition of the binding of the radioligand, is calculated by non-linear regression (Simplex method).

| SMILES | selectivity (D3 versus D2) |
| --- | --- |
| CCCN[C@@H]1CCc2c(OC)cccc2[C@@H]1C [(+) AJ 76] | 2 |
| CCCN(CCC)[C@@H]1CCc2c(OC)cccc2[C@@H]1C [(+) UH 232] | 5 |
